Laboratory results as given in patent US20250235562A1, “USE OF SECOND NEAR-INFRARED ORGANIC FLUORESCENT COMPOUND IN PREPARATION OF BIOIMAGING CONTRAST AGENT AND IN VASCULAR FLUORESCENCE IMAGING” (INNER MONGOLIA UNIVERSITY, priority 2024, published 2025).

Assay: Photostability test under continuous white light irradiation
Format: physicochemical
Conditions: 50 mW·cm^−2 white light, continuous irradiation 40 min
Procedure: (3) Photostability test of the nanoimaging agent Y6CT-NPs: commercial imaging agent indocyanine green (ICG) was selected as a reference. Y6CT-NPs and ICG were irradiated continuously by 50 mW·cm^−2 white light (laparoscopic LED cold light source) for 40 min, and the fluorescence intensity of the two were recorded at different time points, a ratio of which to the initial fluorescence intensity was calculated to compare the attenuation degree of fluorescence intensity and photostability between the two.

CC1(C)C(/C=C/C=C/C=C/C=C2\N(CCCCS(=O)(=O)O)c3ccc4ccccc4c3C2(C)C)=[N+](CCCCS(=O)(=O)[O-])c2ccc3ccccc3c21 [ICG, indocyanine green]
change of fluorescence intensity after continuous irradiation: decreases significantly
fluorescence intensity at 40 min relative to the initial fluorescence intensity: 30%
